Results taken from US12280065B2, “Pharmaceutical compounds and therapeutic methods” (RUTGERS, THE STATE UNIVERSITY OF NEW JERSEY, priority 2019, dated 2025).

Tests used:
[1] = Colonogenic assay for long term cell killing; format: cell-based; conditions: ZN-6 at 10 nM; exposure up to 60 minutes, washout, crystal violet staining after 14-day incubation
Procedure: Cell growth inhibition for 3 days is an effect for a short term treatment. A colonogenic assay was used for the long term cell killing effect. One thousand cells were seeded in each well in 6-well plates. On the second day the cells were exposed with the dilutions of the compound for up to 60 minutes. After that the compound was washed away and the cells were refed with fresh medium without the compound. The colonies were visualized by crystal violet staining after 14-day incubation.

mutant p53-R175H protein = molecular target: T1, mutant p53-R175H protein (Homo sapiens, UniProt P04637, R175H); experiment: Mutant p53 refolding assay (immunofluorescent staining with PAB1620 and PAB240); format: cell-based; conditions: p53-R175H cells (e.g. TOV 112D), treated 6 hours; data not shown
T1 construct: endogenous in cells; host or cells: TOV 112D (p53-R175H cells)
Procedure: An immunofluorescent staining using p53 conformation specific antibodies was used to determine if a test compound could induce the mutant p53 protein refolding to a wildtype conformation. The p53-R175H cells (e.g. TOV 112D) cultured in DMEM+10% FBS were treated with a test compound for 6 hours, then fixed and stained with the antibodies PAB1620 (recognizing WT conformation) and PAB240 (recognizing misfolded/unfolded conformation) respectively.

[2] = test system: p53 target genes PUMA and GDF15 in p53-R175H cells; experiment: Mutant p53 transcriptional reactivation assay by qRT-PCR of p53 target genes; format: cell-based
Procedure: p53 is a transcription factor. The reactivation of mutant p53 can be detected by regulation of the p53 target genes using quantitative reverse transcription PCR (qRT-PCR). The p53-R175H cells were treated with the compound for 6 hours and 24 hours followed by qRT-PCR to analyze the gene expression regulation. The two p53 target genes in this assay were PUMA and GDF15. For ZN-6, the expression levels were induced for 18-fold and 53-fold respectively (in parental cells). To double check the p53 dependence of the effect, the same assay applied to the p53 knockout cell line (KO, done by CRISPR-cas9 technology) and the p53 transient knockdown cells (KD, using siRNA knockdown). The PUMA induction was only 2× and 5× and GDF15 induction was only 1× and 5× in KO and KD cells, respectively (See FIG. 1).

[3] = Solubility of zinc complexes; format: physicochemical
[4] = test system: human tumor cell lines with different p53 status; experiment: Cell growth inhibition assay (Calcein AM); format: cell-based; conditions: for EC50: cell growth, Calcein AM, incubation for 3 days, cell line not stated; for Fold (ZN-1/compound) / Fold (compound/ZN-1): ratio of EC50s
Procedure: Cell growth inhibition assay using human tumor cell lines with different p53 status (wildtype, null, p53-R175H or other zinc binding deficient mutants) were employed to determine if a test compound functions as a zinc metallochaperone to restore wildtype p53 functions. The cell growth inhibition assay was performed by Calcein AM assay (Trevigen). Five thousand cells per well were cultured in 96-well plate to reach the 50% confluence on the second day when treated with serial dilutions of the compounds. Growth was measured by Calcein AM assay (Trevigen) and Victor Plate reader instrument (PerkinElmer) after incubation for 3 days.

[5] = p53 knockout cell line (KO, CRISPR-cas9)
[6] = p53 transient knockdown cells (KD, siRNA)
[7] = parental p53-R175H cells, 6 hours and 24 hours treatment

SMILES	Earliest exposure time that showed effect on colony formation [1] [min]	Refolding of mutant p53 to wildtype conformation (mutant p53-R175H protein)	GDF15 induction [2, 5] [×]	PUMA induction [2, 5] [×]	GDF15 induction [2, 6] [×]	PUMA induction [2, 6] [×]	GDF15 expression induction [2, 7] [fold]	PUMA expression induction [2, 7] [fold]	Solubility in 5% EtOH, 4% Tween80, 4% Kolliphor, 87% water ([3]; 5% EtOH, 4% Tween80, 4% Kolliphor, 87% water) [µg/mL]	Solubility in 10% EtOH, 10% captisol, 80% water ([3]; 10% EtOH, 10% captisol, 80% water) [µg/mL]	Solubility in 50% EtOH 50% H2O ([3]; 50% EtOH, 50% H2O) [µg/mL]	Solubility in DMSO [3] [µg/mL]	Solubility in EtOH [3] [µg/mL]	EC50 [4] [nM]	Fold (ZN-1/compound) [4]	Fold (compound/ZN-1) [4]
C/C(=N\NC(=S)N1CCC1)c1ccccn1 [ZMC1, reference compound]	15	change the mutant p53-R175H protein from mutant conformation to WT conformation	–	–	–	–	–	–	–	–	–	–	–	–	–	–
COCCOCc1cccnc1/C(C)=N/NC(=S)N(C)C.COCCOCc1cccnc1/C(C)=N/NC(=S)N(C)C.[Zn] [ZN-6, Zn[(E)-2-(1-(3-((2-methoxyethoxy)methyl)pyridin-2-yl)ethylidene)-N,N-dimethylhydrazine-1-carbothioamide]2]	15	change the mutant p53-R175H protein from mutant conformation to WT conformation	1	2	5	5	53	18	1000	1000	>5000	>10000	>10000	5.41	0.5	2.0
C/C(=N\NC(=S)N(C)C)c1ncccc1CN1CCOCC1.C/C(=N\NC(=S)N(C)C)c1ncccc1CN1CCOCC1.[Zn] [ZN-7, Zn[(E)-N,N-dimethyl-2-(1-(3-(morpholinomethyl)pyridin-2-yl)ethylidene)hydrazine-1-carbothioamide]2]	–	–	–	–	–	–	–	–	–	–	–	>5000	1000 to 2000	8.36	0.3	3.1
COCCOCc1ccnc(/C(C)=N/NC(=S)N(C)C)c1.COCCOCc1ccnc(/C(C)=N/NC(=S)N(C)C)c1.[Zn] [ZN-12, Zn[(E)-2-(1-(4-((2-methoxyethoxy)methyl)pyridin-2-yl)ethylidene)-N,N-dimethylhydrazine-1-carbothioamide]2]	–	–	–	–	–	–	–	–	–	–	–	–	–	2.52	1.1	0.9
